Key:
Type in all cases: biochemical, Pseudomonas fluorescens Pf-5
PFL_4321 [1] = assay: In vitro enzymatic assays of PFL_4321 with fatty acid substrates or analogs; details: purified PFL_4321, Fe2+, ascorbic acid
Procedure: A typical condition is as follows: 1 mL of reaction mixture contains 50 mM MES buffer (pH 6.2), 300 mM NaCl, 100 μM (NH4)2Fe(SO4)2, 1 mM ascorbic acid, 100 μM fatty acid substrate or analogs, and 10 μM enzyme. The reaction was performed in a sealed headspace vial at 30° C., initiated by adding lauric acid and quenched by injecting equal volume of 5 M NaOH. 1-Undecene production was analyzed and quantified by using the SPME-GCMS method. To determine the kinetic parameters of PFL_4321 on lauric acid, initial velocities at 1, 10, 20, 50, 100, and 150 μM of lauric acid were measured (25 mM lauric acid solution was prepared by adding 0.5% tergitol and heating at 65° C. for 10 min). The reactions were quenched at 2, 4, 6, 8, and 10 seconds, and the acquired turnover rates were fit to the Michaelis-Menten equation using GraphPad Prism to obtain kcat and Km. The kcat and Km of myristic acid and capric acid were determined similarly.
To acquire the kinetic parameters of PFL_4321 on 11-aminoundecanoic acid and 12-aminododecanoic acid, initial velocities at 25, 50, 100, 150, 200, 250, 500, and 700 μM were measured. 50 μl of aliquots of the reaction were quenched at 1, 1.5, 2, 2.5, 3, 3.5, 4, 4.5, 5, 5.5, and 6 minutes by adding 100 μl of acetonitrile. Denatured enzymes were removed by centrifugation at 15,000 g for 20 min. LC-HRMS analysis was carried out on an Agilent Technologies 6520 Accurate-Mass Q-TOF LC-MS instrument equipped with an Agilent Eclipse Plus C18 column (3.5 μm, 4.6×100 mm). 10 μL of the solution was injected into LC-HRMS and a linear gradient of 55 to 95% CH3CN (vol/vol) over 15 min in H2O with 0.1% (vol/vol) formic acid at a flow rate of 0.5 mL/min was used for analysis. The exact masses of aminoundec-1-ene and aminodec-1-ene were extracted, and the peaks were integrated and compared with the standard compounds.

PFL_4321 [2] = assay: Metal ion requirement of PFL_4321 in vitro (1-undecene production from lauric acid)
Procedure: Additional in vitro assays were performed with PFL_4321 using lauric acid, its esters, or thioesters as potential substrates. […] PFL_4321 was incubated with lauric acid in the presence of various metal ions, including Fe^2+, Fe^3+, Mg^2+, Ca^2+, Mn^2+, Co^2+, Ni^2+, Cu^2+, and Zn^2+.

PFL_4321 [3] = assay: Test of H2O2 as a possible substrate
Procedure: To examine whether the H2O2/Fe^3+ or the H2O2/Fe^2+ system provides for the PFL_4321 activity, anaerobic enzymatic reactions in the glove box were performed. The deoxygenated reaction mixture contained 50 mM MES buffer (pH 6.2), 100 mM NaCl, 100 μM PFL_4321, 100 μM either FeCl3 or (NH4)2Fe(SO4)2, 1 mM LA, and various amount of H2O2 (100, 200, 500, 1000, 5000 μM), and 1-undecene production was analyzed. The aerobic reaction was carried out under similar conditions except that the O2 was provided by mixing with the equal volume of O2-saturated buffer solution (50 mM MES, pH 6.2, 100 mM NaCl).

PFL_4321 [4] = assay: Survey of reductive cofactors/cosubstrates under iron-limited conditions; details: iron-limiting conditions; 1 mM reductive cofactor
Procedure: FIG. 7 illustrates a comparison of 1-undecene production by using various reductive cofactors/cosubstrates under iron-limited conditions. 2.5 mL of reaction mixture contains 100 μM MES (pH 6.1), 300 mM NaCl, 50 μM lauric acid, 5 μM PFL_4321, 0.1 μM (NH4)2Fe(SO4)2, and 1 mM reductive cofactor. When needed, 40 μM FAD, FMN, ferredoxin, or phenazine, and 20 μM flavin reductase (FL-R) or ferredoxin reductase (FR) were added.
A survey was conducted to identify the possible reductive cofactor/cosubstrates according to the well-studied oxygen-activating iron-dependent oxygenases, including but not limited to α-ketoglutarate, ascorbic acid, glutathione, cysteine, nicotinamides, flavins, ferredoxin (F. H. Vaillancourt et al., Nature 436, 1191, 2005; W. C. Chang et al., Nature 496, 114, 2013; L. M. Mirica et al., J Am Chem Soc 130, 8122, 2008; P. C. Bruijnincx et al., Chem Soc Rev 37, 2716, 2008). […] Accordingly, ascorbic acid was included in all of the following in vitro assays and the kinetic parameters of PFL_4321 toward lauric acid (C12) were determined (FIG. 8).

PFL_4321 [5] = assay: Reductive co-substrate screening, with chlorite dismutase coupled assay; details: coupled with chlorite dismutase reaction to generate O2 in situ
Procedure: FIG. 28 illustrates a comparison of 1-undecene production by using various reductive cofactors/cosubstrates in the presence of excessive O2 provided by the coupled […] dismutase reaction. The reaction mixture contains 100 μM MES (pH 6.1), 300 mM NaCl, 1 mM lauric acid (dissolved in 0.5% tergitol), 100 μM PFL_4321, 100 μM (NH4)2Fe(SO4)2, 2 μM chlorite dismutase, 4 mM sodium chlorite, and 2 mM reductive cofactor/co-substrates. When needed, 40 μM FAD, FMN, ferredoxin, PQQ, or PMS, and 20 μM flavin reductase (FL-R) or ferredoxin reductase (FR) were added. 1-undecene production was analyzed after reacting for 100 min. Error bars represent standard deviations from at least three independently performed experiments.
To survey the possible reductive co-substrates, the oxygenated buffer solution (50 mM MES, pH 6.2, 100 mM NaCl) was mixed with an equal volume of an O2-free solution containing 50 mM MES buffer (pH 6.2), 100 mM NaCl, 200 μM PFL_4321, 200 μM (NH4)2Fe(SO4)2, 2 mM LA, and 4 mM of the reductive co-substrate, so that the final mixture contained 50 mM MES buffer (pH 6.2), 100 mM NaCl, 100 μM PFL_4321, 100 μM (NH4)2Fe(SO4)2, 1 mM LA, and 2 mM of the reductive co-substrate. The reaction was carried out in a sealed GC vial due to the semi-volatility of 1-undecene. […]

| Compound | conversion of the substrate by PFL_4321 (to the corresponding minus-1-carbon 1-alkene or other product) (PFL_4321 [1]) | also measured |
| --- | --- | --- |
| CCCCCCCCCC=CC(=O)O [2,3-dodecenoic acid] | no activity | – |
| CCCCCCCCC(C)CCC(=O)O (centres unmarked) [4-methyldodecanoic acid] | converted to their corresponding terminal olefins | – |
| C#CCCCCCCCCC(=O)O [10-undecynoic acid] | catalyzed the conversion | – |
| NCCCCCCCCCCC(=O)O [11-aminoundecanoic acid] | catalyzed the conversion | – |
| O=C(O)CCCCCCCCCCBr [11-bromoundecanoic acid] | catalyzed the conversion | – |
| CC(C)CCCCCCCCCC(=O)O [11-methyldodecanoic acid] | converted to their corresponding terminal olefins | – |
| NCCCCCCCCCCCC(=O)O [12-aminododecanoic acid] | catalyzed the conversion | – |
| O=C(O)CCCCCCCCCCCBr [12-bromododecanoic acid] | catalyzed the conversion | – |
| O=C(O)CN(CCN(CC(=O)O)CC(=O)O)CC(=O)O [EDTA, ethylenediaminetetraacetic acid] | – | effect on 1-undecene formation by PFL_4321, lauric acid and E. coli crude extract (PFL_4321 [2]; addition of chelating agent): quenched |
| [Fe+2] [Fe^2+] | – | 1-undecene production by PFL_4321 with lauric acid in the presence of the metal ion (PFL_4321 [2]; PFL_4321 incubated with lauric acid and metal ion): elicited the 1-undecene production |
| OO [H2O2] | – | 1-undecene formation in the presence of H2O2 (PFL_4321 [3]; anaerobic reactions with either PFL_4321-Fe(III) or PFL_4321-Fe(II)): no 1-undecene was formed; 1-undecene formation in the presence of H2O2 (PFL_4321 [3]; both H2O2 and O2, PFL_4321-Fe(III)): no 1-undecene was formed; effect of H2O2 on 1-undecene formation (PFL_4321 [3]; reaction containing O2 and PFL_4321-Fe(II)): did not promote |
| [2H]C([2H])(CCCCCCCCCC)C(=O)O [[α,α-D2]lauric acid] | led to the production of 1-undecene retaining both deuterium atoms | – |
| O=C1O[C@H]([C@@H](O)CO)C(O)=C1O [ascorbic acid] | – | effect on the yield of 1-undecene (PFL_4321 [4]): significantly increased; multiple turnovers for PFL_4321 in vitro (PFL_4321 [5]): allowed for multiple turnovers; rate of 1-undecene production with multiple turnovers (PFL_4321 [5]): four |
| CCCCCCCCCC(=O)O [capric acid] | converted | – |
| CCCCCCCC(=O)O [caprylic acid] | failed to act | – |
| N[C@@H](CS)C(=O)O [cysteine] | – | effect on the yield of 1-undecene (PFL_4321 [4]): modest effect |
| O=S(O)S(=O)O [dithionite] | – | effect on 1-undecene production by PFL_4321 (PFL_4321 [3]; added to reduce O2 to H2O2 in situ): inhibited |
| CCCCCCCCCCCCCC(=O)O [myristic acid] | converted | – |
| CCCCCCCCCCCCCCCC(=O)O [palmitic acid] | failed to act | – |
| CCCCCCCCCCC(O)C(=O)O (stereo not drawn) [α-hydroxydodecanoic acid] | transformed | – |
| CCCCCCCCCC(O)CC(=O)O (stereo not drawn) [β-hydroxydodecanoic acid] | no activity | – |
| [D23]lauric acid | led to the production of [D22]1-undecene | – |

— patent US10000775B2, “Biosynthesis of 1-undecene and related terminal olefins” (The Regents of the University of California, priority 2013, dated 2018)
